These results are taken from PMC11459966, “Oral pharmacokinetics and efficacy of oral phospholipid remdesivir nucleoside prodrugs against SARS-CoV-2 in mice” (Antimicrobial Agents and Chemotherapy, 2024).

Usually CC50 stands for the concentration that lowers cell viability or growth by half. As usually defined, the EC50 is the concentration at which the effect is half-maximal. As a reminder, the EC90 is the concentration needed for an effect of 90%. The term AUC denotes the area under the concentration-time curve, a measure of exposure. The low end stands for less exposure, the high end for more exposure. In general, Cmax refers to the peak of the concentration-time curve. One may read the half-life as the time in which the quantity being followed falls by half. Lower therefore signals fast loss. What is called CL/F is the apparent clearance, not corrected for the fraction that reaches the circulation. The Vd/F is the volume of distribution divided by bioavailability.

On the set-up of data set [1]: method as in PMID 34937145. Particulars: early administration, non-hospitalized high-risk individuals ref 5; cited from earlier work.
Data set [2] in a line: Cell viability assay (CellTiter-Glo), Calu-3. Particulars: human, Calu-3 cells. A general note: ATP-based viability assays read luminescence as a measure of living cells.
For data set [3], the system named is SARS-CoV-2 isolate USA-WA1/2020. The note with it: Vero-TMPRSS2.
Data set [4] can be described thus: Cell viability assay (CellTiter-Glo), A2T2-A549. The note with it: human, A2T2-A549 cells.
In data set [5] the test system is SARS-CoV-2 isolate USA-WA1/2020. Briefly: microbe, parasite or virus in culture. In kind it is cell-based. The note with it: Severe acute respiratory syndrome coronavirus 2; Calu-3 cells, 44–48 hpi.
Data set [6] shares this test system. Particulars: A2T2-A549.
The test system is the same in data set [7]. Briefly: microbe, parasite or virus in culture. The note with it: for EC50: Severe acute respiratory syndrome coronavirus 2, Vero/TMPRSS2, read-out: EC50 μM ± SD; for EC90: Severe acute respiratory syndrome coronavirus 2, Vero/TMPRSS2, read-out: EC90 μM ± SD.
Data set [8] in a line: Cell viability assay (CellTiter-Glo), Huh7.5. The note with it: human, Huh7.5 cells.
The test system of data set [9] is SARS-CoV-2 isolate USA-WA1/2020. As to the kind of experiment: microbe, parasite or virus in culture. Particulars: for EC50: Severe acute respiratory syndrome coronavirus 2, Huh7.5, read-out: EC50 μM ± SD; for EC90: Severe acute respiratory syndrome coronavirus 2, Huh7.5, read-out: EC90 μM ± SD.
Data set [10] has the same test system. Briefly: microbe, parasite or virus in culture. The note with it: for EC50: Severe acute respiratory syndrome coronavirus 2, read-out: EC50 μM ± SD; for EC90: Severe acute respiratory syndrome coronavirus 2, read-out: EC90 μM ± SD.
The nature of data set [11]: Cell viability assay (CellTiter-Glo), Vero-TMPRSS2. In kind it is cell-based, African green monkey. The note with it: African green monkey, Vero-TMPRSS2 cells, 48 h incubation. How it is done:
Cell viability assays (Table 1) were performed as previously described ([7]). Cells were cultured and seeded as per in vitro antiviral studies in opaque walled 96-well cell culture plates and incubated overnight for Huh7.5, A2T2-A549, and Vero-E6-TMPRSS2 cells and for 2 days for Calu-3 cells. Compounds or controls were added at the indicated concentrations in a total volume of 100 µL, and cells were incubated for 48 h. An equal volume of CellTiter-Glo reagent (Promega, Cat. #G7570) or CellTiter-Glo 2.0 reagent (Promega, Cat. #G9241) was added and mixed, and luminescence was recorded on a Veritas Microplate Luminometer (Turner BioSystems) or a Spark Multimode plate reader (Tecan) according to manufacturer instructions. Percent viability was normalized to DMSO controls, and CC50 values were derived from best fit curves calculated in Prism 10.

Data set [12] can be described thus: Single dose PO or IV plasma pharmacokinetics and tolerability in BALB/c mice. Particulars: for AUC / Cmax: male, BALB/c, mouse, in vivo.
Data set [13] can be described thus: 5-day oral tolerability study with terminal pharmacokinetics in BALB/c mice. In kind it is in vivo. The note with it: 80 mg/kg or 100 mg/kg daily PO. The method, then:
(§1) Fig 3 Oral RVn prodrugs maintain high serum levels after repeated dosing in mice and hamsters. Multiple-dose oral tolerability and pharmacokinetics in mice and Syrian hamsters: (A and B) 5-day oral tolerability study in BALB/c mice with pharmacokinetics obtained after the final dose. Male 20–22 g mice were given the indicated drugs at (A) 80 mg/kg or (B) 100 mg/kg PO daily in 0.1 M sodium carbonate/bicarbonate pH 9 for 5 days. Plasma was obtained after the last dose at 1, 3, 6, and 12 h (In Vivo Technologies, Moffatt Field, CA). (C) 7-day oral tolerability study in Syrian hamsters with pharmacokinetics obtained after the final dose. […] All plasma samples were analyzed to determine prodrug levels (Aliri Bio, Colorado Springs, CO).
After fortification, 50 µL of plasma was crashed with 400 µL of methanol containing 10 ng/mL of the internal standard (V2066). One hundred fifty microliters of the supernatant was removed and diluted with 150 µL of water in a clean 96 well injection plate.
Chromatography for the prodrugs was performed on a Raptor Biphenyl (2.1 × 50) column at a flow rate of 0.5 mL/min. A gradient method starting at 60% B (0.1% formic acid in 90:10 methanol:acetonitrile) for 30 s and then ramping to 95% B over 2.5 min. This composition was held for 1.0 min before being returned to starting conditions and re-equilibration to 40% A (10 mM ammonium formate with 0.2% formic acid in water).
Oral pharmacokinetic studies were carried out at In Vivo Technologies (Moffatt Field, CA) in male BALB/c mice, 22–23 g under IACUC protocol number IVT-11–010Y12 (LifeSource Animal Care and Use Committee). […] Blood was obtained by facial vein or terminal cardiac puncture at the indicated times and plasma was frozen for analysis. Similar procedures were followed for 5-day tolerability and terminal dose pharmacokinetic studies in mice at oral daily doses of 80 or 100 mg/kg.

A short description of another data set: in vivo. The note with it: male, BALB/c, mouse.
Data set [14] in a line: 7-day oral tolerability study with terminal pharmacokinetics in Syrian hamsters. In kind it is in vivo. The note with it: 100 mg/kg PO daily, 7 days. The method, then:
as §1
A 7-day oral tolerability and terminal pharmacokinetic study in 100–125 g male Syrian hamsters were done at Attentive Sciences (Stillwell, KS), under IACUC approval number 1123–6788. […] Daily clinical observation and weights were obtained. After the day 7 oral dose blood was obtained at the indicated times and plasma was frozen for analysis.

Data set [15] deals with SARS-CoV-2 isolate USA-WA1/2020. Also noted: method as in PMID 37040439. The note with it: Calu-3, dotted lines of Fig. 2 and 3 ref 7; read-out: in vitro EC90 for SARS-CoV-2 infection in Calu-3 cells; cited from earlier work.
Another data set deals with Calu-3 cells. Further details: method as in PMID 37040439. The note with it: Calu-3, CellTiter-Glo, previously published, identical conditions ref 7; cited from earlier work.
On the set-up of data set [16]: method as in PMID 38776389. Particulars: twice daily oral 30 mg/kg doses, BALB/c mice ref 10; cited from earlier work.

Entries after “also recorded” stand apart in the source; their conditions may differ. Where two headings read alike, the source gives them in different places.

Regarding `CCC(CC)COC(=O)[C@H](C)N[P@](=O)(OC[C@H]1O[C@@](C#N)(c2ccc3c(N)ncnn23)[C@H](O)[C@@H]1O)Oc1ccccc1` [remdesivir], the “decrease of the risk of hospitalization or death” value in data set [1] was 87%.

In the case of `N#C[C@@]1(c2ccc3c(N)ncnn23)O[C@H](CO)[C@@H](O)[C@H]1O` [RVn, reference compound], the CC50 at 48 h in data set [2], in [4], in [8] and in [11] was over 100 µM throughout. Moreover, the “SI (CC50/EC50)” value in data set [3] is on record as over 92; in data set [6], over 33. Moreover, the EC50 was found to be 0.665 ± 0.284 µM in [5], 1.08 ± 0.264 µM in [7], 1.36 ± 0.544 µM in data set [9] and 3.01 ± 0.038 µM in data set [10]. Besides, the EC90 in data set [5] came out at 1.89 ± 0.497 µM; in data set [7], 2.43 ± 0.692 µM; in [9], 2.96 ± 0.866 µM; in data set [10], 4.49 ± 0.256 µM.

On to `CCCCCCCCCCCCCCCCCCOC[C@H](COP(=O)(O)OC[C@H]1O[C@@](C#N)(c2ccc3c(N)ncnn23)[C@H](O)[C@@H]1O)OCc1ccccc1` [Compound V2043, 1-O-octadecyl-2-O-benzyl-sn-glyceryl-P-RVn], for which, in [12] (20, 60 or 180 mg/kg single oral dose, BALB/c mice), the “tolerability of single escalating oral doses” value is “well tolerated with no appreciable adverse effects”. Also, the AUC in data set [12] (iv, 7 mg/kg) was 46.6 µM·h; in [12] (po, 20 mg/kg), 90.1 µM·h; in data set [12] (po, 60 mg/kg) it was 199 µM·h; in data set [12] (po, 180 mg/kg), 211 µM·h. Further, the Cmax came to 96.6 µM in data set [12] (iv, 7 mg/kg); 10.6 µM in data set [12] (po, 20 mg/kg); 20.3 µM in data set [12] (po, 60 mg/kg); 17 µM in data set [12] (po, 180 mg/kg). Further, the CC50 at 48 h in data set [4] was over 100 µM; in [11], 82.6 µM. Moreover, the EC50 in data set [5] was 0.168 ± 0.074 µM; in [7], 0.104 ± 0.03 µM; in data set [9], 0.117 ± 0.009 µM; in data set [10] it was 0.566 ± 0.028 µM. The EC90 in data set [5] was 0.484 ± 0.142 µM; in [7] it was 0.248 ± 0.052 µM; in data set [9] it was 0.293 ± 0.042 µM; in data set [10] it was 1.62 ± 0.227 µM; in data set [15] it was 0.32 µM. The “tolerability of once-daily oral doses for 5 days” value in [13] is “no adverse clinical effects were noted”. Besides, the half-life in the data set “in vivo” (iv, 7 mg/kg) is 0.7 h; in “in vivo” (po, 20 mg/kg) it was 4.46 h; in “in vivo” (po, 60 mg/kg) it was 6.31 h; in “in vivo” (po, 180 mg/kg), 7.06 h. The CL/F in the data set “in vivo” (po, 20 mg/kg) was 4.35 mL/min/kg; in the data set “in vivo” (po, 60 mg/kg) it was 5.57 mL/min/kg; in the data set “in vivo” (po, 180 mg/kg), 14.1 mL/min/kg. In addition, the Vd/F in the data set “in vivo” (po, 20 mg/kg) is 1.68 L/kg; in “in vivo” (po, 60 mg/kg), 3.04 L/kg; in the data set “in vivo” (po, 180 mg/kg), 8.61 L/kg. In data set [14], the “tolerability of seven-day once-daily oral dosing” value is “well tolerated without any appreciable toxicity; also recorded: No ill effects were reported”. For the same compound, the CC50 with Calu-3 cells was 58.3 µM.

On to `CC(C)C(=O)OC[C@H]1O[C@@](C#N)(c2ccc3c(N)ncnn23)[C@H](O)[C@@H]1O` [Obeldesivir GS-5245, reference compound], for which the daily systemic exposure in [16] is 108 µM·h. In addition, in data set [10], the EC50 is 1.2 ± 0.084 µM and the EC90 was found to be 1.89 ± 0.46 µM.
